As a reminder, the IC50 is the concentration needed to halve the response being measured.

Data set [1] can be described thus: logPo/w by shake-flask method with ICP-MS Pt determination. Format: physicochemical. Conditions: n-octanol / 0.15 M KCl in water.
The subject of data set [2] is human A431 cancer cell spheroids. The data set is described as follows: Cytotoxicity towards 3D spheroids, acid phosphatase (APH) assay. It is filed as cell-based. Particulars: A431 3D spheroids, 72 h, APH assay. An excerpt:
The remarkable cell-killing effect observed against human A431 squamous cervical carcinoma two-dimensional (2D) cultured cells prompted us to evaluate the in vitro antitumor activity of compounds 1–6 on three-dimensional (3D) cell cultures. As opposed to 2D monolayer cultures, cells growing in 3D culture systems form spheroids that comprise cells in various stages. […] Such cellular heterogeneity resembles that of in vivo tumors, making 3D cell cultures more predictive than conventional 2D monolayer cultures in screening antitumor drugs.
Spheroid cultures were obtained by seeding 2.5 × 10^3 A431 cancer cells/well in a round bottom non-treated tissue culture 96 well-plate (Greiner Bio-one, Kremsmünster, Austria) in phenol red free RPMI-1640 medium (Sigma Chemical Co.) containing 10% fetal calf serum (FCS) and supplemented with 20% methyl cellulose stock solution.
An APH modified assay was used for determining cell viability in 3D spheroids, as previously described. IC50 values were calculated with a four parameter logistic (4-PL) model.

Data set [3] has as its system 2008 human ovarian cancer cells. The data set is described as follows: MTT cytotoxicity test, 72 h. Format: cell-based. Particulars: 2008, MTT. The method, then:
(§1) The in vitro cytotoxic activities of compounds 1–6 were assayed on a panel of human cancer cell lines containing examples of pancreatic (PSN-1), colon (HCT-15 and LoVo), cervical (A431), and ovarian (2008) cancers. Cisplatin and oxaliplatin were used as reference compounds and were tested under the same experimental conditions.
(§2) Human colon (HCT-15 and LoVo) and pancreatic (PSN-1) carcinoma cell lines were obtained from the American Type Culture Collection (ATCC, RocKville, MD). The 2008 human ovarian cancer cells were kindly provided by Prof. G. Marverti (Dept. of Biomedical Science of Modena University, Italy). Human cervical carcinoma (A431) cells were kindly provided by Prof. F. Zunino (Division of Experimental Oncology B, Istituto Nazionale dei Tumori, Milan, Italy). […] Cell lines were maintained in the logarithmic phase at 37 °C in a 5% carbon dioxide atmosphere using RPMI-1640 or F-12 culture medium (Euroclone) containing 10% fetal calf serum (Euroclone, Milan, Italy), antibiotics (50 units per mL penicillin and 50 μg mL^−1 streptomycin), and 2 mM L-glutamine.
(§3) The growth inhibitory effect toward the tumor cell lines was evaluated by the MTT test. Briefly, 3-8·10^3 cells/well, depending upon the growth characteristics of the cell lines, were seeded in 96-well microplates in growth medium (100 µL) and then incubated at 37 °C in a 5% carbon dioxide atmosphere. After 24 h, the medium was removed and replaced with a fresh one containing the compound to be tested at the appropriate concentration. Triplicate cultures were established for each treatment. After 72 h, each well was treated with 10 µL of a 5 mg·mL^−1 MTT (3-(4,5-dimethylthiazol-2-yl)-2,5-diphenyltetrazolium bromide) saline solution and, after 5 h of incubation, 100 µL of a sodium dodecylsulfate (SDS) solution in HCl 0.01 M were added. Following an overnight incubation, the inhibition of cell growth induced by the tested complexes was evaluated by measuring the absorbance of each well at 570 nm using a Bio-Rad 680 microplate reader (Bio-Rad Laboratories S.r.l., Segrate (MI), Italy).
(In general: Formazan colour is commonly taken as a measure of viable cells.)

Data set [4] has as its system PSN-1 human pancreatic carcinoma cells. The data set is described as follows: MTT cytotoxicity test, 72 h. Format: cell-based. Particulars: PSN-1, MTT. The method, then:
as §1, §2, §3

In data set [5] the test system is HCT-15 human colon carcinoma cells. The data set is described as follows: MTT cytotoxicity test, 72 h. Format: cell-based. Particulars: HCT-15, MTT. The method, then:
as §1, §2, §3

Data set [6] concerns LoVo human colon carcinoma cells. The data set is described as follows: MTT cytotoxicity test, 72 h. Format: cell-based. On the procedure: as §1, §2, §3
The test system of data set [7] is A431 human cervical carcinoma cells. The data set is described as follows: MTT cytotoxicity test, 72 h. It is filed as cell-based. The method, then: as §1, §2, §3
Data set [8] in a line: Cyclic voltammetry, cathodic reduction potential in aqueous solution. Conditions: values normalized vs. SCE; phosphate buffer pH 7.4, 5 mM NaCl, 5·10^−4 M complex, scan rate 0.020 V s^−1. It is filed as physicochemical. The method, then:
The electrochemical characterization of compounds 1–6, performed by using cyclic voltammetry (CV), was carried out with the aim of determining the cathodic reduction potentials in aqueous solution (Ep^c).
Cyclic voltammetry (CV) measurements were carried out with a potentiostat CHI 1230B (CH Instruments, Inc., Austin, TX, USA) in a standard three-electrode electrochemical cell. The working electrode was a glassy carbon (GC) electrode, the reference electrode was a KCl-saturated Ag/AgCl and the counter was a Pt sheet. The GC electrode was carefully polished with alumina powder, then rinsed with distilled water and dried, to obtain a reproducible surface for all the experiments. All the measurements, conducted in triplicate, were carried out in buffered aqueous solutions containing the Pt(IV) compound at a concentration of 5·10^−4 M in 10 mL phosphate buffer (PB, pH = 7.4, I = 0.1) and 5 mM NaCl as supporting electrolyte. A blank solution (without Pt(IV) complex) was also tested. All the peak potentials were measured with a scan rate of 0.020 V s^−1; the initial potential was chosen equal to the open-circuit potential and the scan direction was negative. All the CV plots were acquired after an equilibration time of 2 min in order to make the GC surface reproducible.

Data set [9] can be described thus: XPS Pt4f surface reduction of Pt(IV) to Pt(II) under X-ray irradiation. It is filed as physicochemical. Conditions: for % of Reduction: after 30 min irradiation, calculated from Pt(IV) abundances. An excerpt: The Pt(IV) complexes were also characterized by X-ray photoelectron spectroscopy (XPS) in order to obtain information on the surface chemical composition and on the platinum speciation. Despite the surface sensitivity of the technique (topmost 5–8 nm), the analysis on homogeneous samples provides useful information on the chemical environment of all detected elements. […] Two doublets were found: one is attributed to Pt(II) (BE Pt4f7/2 = 72.9 ± 0.2 eV and BE Pt4f5/2 = 76.2 ± 0.2 eV), while the second doublet is attributed to Pt(IV) (BE Pt4f7/2 = 75.6 ± 0.2 eV and BE Pt4f5/2 = 79.0 ± 0.2 eV).
The Pt(IV)/Pt(II) relative abundance varies from case to case; moreover, if the X-ray degradation is monitored after 30 min exposure to the X-ray beam, an increase of the Pt(II) relative abundance is observed (Figure 8b).
X-ray Photoelectron Spectroscopy (XPS) analyses were run on a PHI 5000 Versa Probe II Scanning XPS Microprobe spectrometer (ULVAC PHI Inc., Kanagawa, Japan). Measurements were carried out using a monochromatic Al Kα source (X-ray spot 200 μm) at a power of 50.3 W. Wide scan and detailed spectra (Pt4f, C1s, Cl2p, N1s, O1s) were acquired in Constant Analyzer Energy (CAE) mode with a pass energy of 117.40 and 29.35 eV, respectively. An electron gun was used for charge compensation (1.0 V, 20.0 μA). Due to the X-ray sensitivity of Pt(IV) complexes, the Pt4f spectral region was acquired first. X-ray degradation kinetics experiments were performed analyzing the same sample area after 30 min. Data processing was performed by using the MultiPak software v. 9.8.0.19.

In data set [10] the test system is LoVo-OXP cancer cells. The data set is described as follows: MTT cytotoxicity test, 72 h, oxaliplatin-resistant cells. It is filed as cell-based, human. Conditions: LoVo OXP.
Source text: as §2, §3

Data set [11] concerns cisplatin-resistant ovarian C13* cell line. Details: method as in PMID 22788918. Particulars: cited from earlier work.
In data set [12] the test system is oxaliplatin-resistant colon LoVo-OXP cell line. More on the design: method as in PMID 22788918. Particulars: cited from earlier work.
The test system of data set [13] is LoVo OXP cells. Particulars: cited from earlier work.
Data set [14] has as its system panel of human tumor cell lines (A431, 2008, HCT-15, LoVo, LoVo OXP, LoVo MDR). Conditions: cited from earlier work.
Data set [15] has as its system panel of human cancer cell lines (PSN-1, HCT-15, LoVo, A431, 2008). The data set is described as follows: MTT cytotoxicity, average over the panel of human cancer cell lines. It is filed as cell-based. Particulars: mean over the cell line panel, 72 h. On the procedure:
as §1
[17, 30] Thus, the pharmacological activity decreases in the order 3 >> 1 ≈ 2 ≈ 4 > 5 > 6.
as §3

Data set [16] in a line: Stability in solution followed by 1H-NMR (solvent-assisted photoreduction). It is filed as physicochemical. Conditions: DMSO-d6, room temperature, not shielded from light. An excerpt: (5.4–6.5 ppm). Most likely, compound 4 underwent a solvent-assisted reduction process favored by light, as previously observed for similar compounds such as cis,trans,cis-[PtCl2(OH)2(cis-1,4-DACH)] [19, 20]. […] This reduction/solvation could also be observed in other solvents, such as D2O and CD3OD.
As for compound 4, the reduction is probably fostered by the presence of axial chlorido ligand(s).
The ^13C NMR signals are influenced by the asymmetry of the complex with respect to the equatorial plane with two peaks at 125.4 and 125.2 ppm for the vinylic carbons, two signals at 60.2 and 59.3 ppm for the methynic carbons, and two signals at 33.1 and 32.6 ppm for the methylenic carbons (Figure S10).

The compound “cis,trans,cis-[Pt(OXA)(OH)2(DACHEX)] [Complex 1]” returned a logPo/w in data set [1] of −3.05. Further, the IC50 in data set [2] came out at 5800 ± 800 nM; in [3], 720 ± 100 nM; in data set [4] it was 3150 ± 800 nM; in data set [5] it was 440 ± 100 nM; in data set [6], 840 ± 300 nM; in [7], 490 ± 200 nM. The half-maximal inhibitory concentration (IC50) in data set [10] is more than 2000 nM. Moreover, in data set [8], the “Cathodic reduction potential Ep^c” value is on record as −1.05 V. Further, the “% Relative Abundance Pt(IV)/(II), After 30 min Irradiation” value in data set [9] (after 30 min X-ray irradiation) is 48/52. In [9], the “% of Reduction” value was 44%. Besides, the “% Relative Abundance Pt(IV)/(II), As Irradiated” value in data set [9] (onset of the experiment) is 86/14.
In the case of `NC1CCC(N)CC1.[Cl][Pt+2][Cl]` (stereo not drawn) [Kiteplatin, [PtCl2(cis-1,4-DACH)]], the “activity against cell line” value in data set [11] and in data set [12] was “active” each time.
In the case of `NC1CC=CCC1N.O=C1[O][Pt][O]C1=O` (racemic) [[Pt(OXA)(DACHEX)]], in data set [13], the lipid droplets formation result is “induced lipid droplets formation”. Moreover, the “ability to overcome oxaliplatin resistance (LoVo vs LoVo-OXP)” value in data set [14] is listed as “equally active”. Besides, the “cytotoxic activity compared with cisplatin and oxaliplatin” value in data set [14] (panel of human tumor cell lines) was “better than that of cisplatin and comparable to or better than that of oxaliplatin”.
Turning to `[NH2][Pt]([NH2])([Cl])[Cl]` [CDDP, cisplatin, reference compound], the IC50 in [2] is 58300 ± 900 nM; in data set [3], 2230 ± 100 nM; in [4], 16600 ± 4200 nM; in [5], 15300 ± 2600 nM; in data set [6] it was 7600 ± 1500 nM; in data set [7], 1430 ± 400 nM. In [15], the half-maximal inhibitory concentration (IC50) was 8600 nM.
Consider `NC1CC=CCC1N.O=C1[O][Pt]([Cl])([Cl])[O]C1=O` (racemic) [Complex 4, cis,trans,cis-[Pt(OXA)Cl2(DACHEX)]], for which, in data set [16], the “stability in solution (reduction to Pt(II) / solvation)” value is recorded as “quite unstable”. For the same compound, the IC50 in [2] came out at 9900 ± 2600 nM; in [3] it was 420 ± 100 nM; in data set [4] it was 3080 ± 1100 nM; in [5], 1170 ± 200 nM; in data set [6], 390 ± 30 nM; in [7], 430 ± 200 nM. Also, the half-maximal inhibitory concentration (IC50) in data set [10] is more than 2000 nM. Also, the “Cathodic reduction potential Ep^c” value in [8] is recorded as −0.72 V. Further, in data set [9], the “% of Reduction” value is given as 67%.
Consider `O=C1[O][Pt]2([NH][C@@H]3CCCC[C@H]3[NH]2)[O]C1=O` [OXP, oxaliplatin, reference compound], for which the IC50 turned out to be 36300 ± 1200 nM in data set [2]; 1530 ± 900 nM in data set [3]; 7900 ± 3500 nM in data set [4]; 1150 ± 400 nM in [5]; 1100 ± 600 nM in data set [6]; 3800 ± 1300 nM in [7]. In addition, the IC50 in [15] is 3100 nM; in data set [10], 14300 ± 2100 nM.
With `CC(=O)[O][Pt]1([O]C(C)=O)[O]C(=O)C(=O)[O]1.NC1CC=CCC1N` [Complex 2, cis,trans,cis-[Pt(OXA)(AcO)2(DACHEX)]], the 50% inhibitory concentration (IC50) in data set [2] stood at 3400 ± 900 nM; in data set [3], 330 ± 500 nM; in data set [4] it was 2850 ± 700 nM; in [5], 1270 ± 500 nM; in [6], 590 ± 100 nM; in [7] it was 550 ± 100 nM. In data set [10], this compound registered an IC50 of more than 2000 nM. For the same compound, the “Cathodic reduction potential Ep^c” value in data set [8] is given as −1.03 V. The “% of Reduction” value in data set [9] is reported as 65%.

(Values after publication PMC7177638 (International Journal of Molecular Sciences, 2020).)
